Reference: ChEMBL document CHEMBL3612012, “Identification of orally-bioavailable antagonists of the TRPV4 ion-channel” (Bioorg Med Chem Lett, 2015)

Tests used:
[1] = molecular target: Substance-K receptor (Homo sapiens) (UniProt P21452); assay: Binding affinity to human NK2 receptor assessed as inhibition of control specific binding at 10 uM
[2] = molecular target: Neuropeptide Y receptor type 2 (Homo sapiens) (UniProt P49146); assay: Binding affinity to human Y2 receptor assessed as inhibition of control specific binding at 10 uM
[3] = molecular target: Sodium-dependent dopamine transporter (Homo sapiens) (UniProt Q01959); assay: Binding affinity to human DA transporter assessed as inhibition of control specific binding at 10 uM
[4] = molecular target: Transient receptor potential cation channel subfamily V member 4 (Rattus norvegicus, UniProt Q9ERZ8); assay: Antagonist activity at rat TRPV4 expressed in HEK293 cells assessed as inhibition of 20% hypotonic solution-induced Ca2+ influx; assay type: cell-based
[5] = molecular target: Kappa-type opioid receptor (Homo sapiens) (UniProt P41145); assay: Binding affinity to human kappa opioid receptor assessed as inhibition of control specific binding at 10 uM
[6] = molecular target: T1, Transient receptor potential cation channel subfamily V member 4 (Mus musculus, UniProt Q9EPK8); assay: Antagonist activity at mouse TRPV4 receptor expressed in HEK293 cells assessed as inhibition of 4alpha-PDD-stimulated calcium flux after 10 mins; assay type: cell-based
[7] = molecular target: Type-1 angiotensin II receptor (Homo sapiens) (UniProt P30556); assay: Binding affinity to human AT1 receptor assessed as inhibition of control specific binding at 10 uM
[8] = molecular target: 5-hydroxytryptamine receptor 1A (Homo sapiens) (UniProt P08908); assay: Binding affinity to human 5-HT1A receptor assessed as inhibition of control specific binding at 10 uM
[9] = molecular target: Adenosine receptor A2a (Homo sapiens) (UniProt P29274); assay: Binding affinity to human adenosine A2A receptor assessed as inhibition of control specific binding at 10 uM
[10] = molecular target: Cannabinoid receptor 1 (Homo sapiens) (UniProt P21554); assay: Binding affinity to human CB1 receptor assessed as inhibition of control specific binding at 10 uM
[11] = Plasma protein binding in rat; assay type: ADME, cell-free; conditions: read-out: PPB (converted)
[12] = AUC (infinity) in Wistar rat at 1.40 mg/kg, iv; assay type: ADME, organism-based; set-up: dose 1.4 mg/kg, time infinity, route intravenous; conditions: in vivo, 1.4 mg/kg
[13] = molecular target: 5-hydroxytryptamine receptor 3A (Homo sapiens) (UniProt P46098); assay: Binding affinity to human 5-HT3 receptor assessed as inhibition of control specific binding at 10 uM
[14] = molecular target: Muscarinic acetylcholine receptor M3 (Homo sapiens) (UniProt P20309); assay: Binding affinity to human M3 receptor assessed as inhibition of control specific binding at 10 uM
[15] = molecular target: Mu-type opioid receptor (Homo sapiens) (UniProt P35372); assay: Binding affinity to human mu opioid receptor agonist site assessed as inhibition of control specific binding at 10 uM
[16] = Cmax in Wistar rat at 29.73 mg/kg, po; assay type: ADME, organism-based; set-up: dose 29.73 mg/kg, route oral; conditions: in vivo
[17] = molecular target: 5-hydroxytryptamine receptor 6 (Homo sapiens) (UniProt P50406); assay: Binding affinity to human 5-HT6 receptor assessed as inhibition of control specific binding at 10 uM
[18] = molecular target: Sodium-dependent serotonin transporter (Homo sapiens) (UniProt P31645); assay: Binding affinity to human 5-HT transporter assessed as inhibition of control specific binding at 10 uM
[19] = molecular target: Adenosine receptor A3 (Homo sapiens) (UniProt P0DMS8); assay: Binding affinity to human adenosine A3 receptor assessed as inhibition of control specific binding at 10 uM
[20] = molecular target: Thromboxane A2 receptor (Homo sapiens) (UniProt P21731); assay: Binding affinity to human TP receptor assessed as inhibition of control specific binding at 10 uM
Homo sapiens [21] = species: Homo sapiens; assay: Binding affinity to sodium channel site-2 (unknown origin) assessed as inhibition of control specific binding at 10 uM
[22] = molecular target: 5-hydroxytryptamine receptor 5A (Homo sapiens) (UniProt P47898); assay: Binding affinity to human 5-HT5A receptor assessed as inhibition of control specific binding at 10 uM
Homo sapiens [23] = species: Homo sapiens; assay: Binding affinity to SK+ calcium channel (unknown origin) assessed as inhibition of control specific binding at 10 uM
[24] = molecular target: 5-hydroxytryptamine receptor 7 (Homo sapiens) (UniProt P34969); assay: Binding affinity to human 5-HT7 receptor assessed as inhibition of control specific binding at 10 uM
[25] = molecular target: T1, Transient receptor potential cation channel subfamily V member 4; assay: Antagonist activity at mouse TRPV4 receptor expressed in HEK293 cells assessed as inhibition of EC80 of 4alpha-PDD-stimulated calcium flux after 10 mins; assay type: cell-based
Homo sapiens [26] = species: Homo sapiens; assay: Binding affinity to verapamil site of calcium channel L (unknown origin) assessed as inhibition of control specific binding at 10 uM
Homo sapiens [27] = species: Homo sapiens; assay: Binding affinity to central benzodiazepine receptor (unknown origin) assessed as inhibition of control specific binding at 10 uM
[28] = molecular target: 5-hydroxytryptamine receptor 2A (Homo sapiens) (UniProt P28223); assay: Binding affinity to human 5-HT2A receptor assessed as inhibition of control specific binding at 10 uM
[29] = molecular target: Beta-1 adrenergic receptor (Homo sapiens) (UniProt P08588); assay: Binding affinity to human beta1 adrenergic receptor assessed as inhibition of control specific binding at 10 uM
[30] = molecular target: Adrenergic receptor alpha-1 (Homo sapiens) (UniProt P35348+P25100+P35368); assay: Binding affinity to non-selective alpha1 adrenergic receptor (unknown origin) assessed as inhibition of control specific binding at 10 uM; assay type: protein assay
[31] = molecular target: Transient receptor potential cation channel subfamily V member 3 (Homo sapiens, UniProt Q8NET8); assay: Antagonist activity at human TRPV3 receptor expressed in HEK293 cells assessed as inhibition of capsaicin-stimulated calcium flux after 10 mins; assay type: cell-based
[32] = Cmax in Wistar rat at 32.50 mg/kg, ip; assay type: ADME, organism-based; set-up: dose 32.5 mg/kg, route intraperitoneal; conditions: in vivo, 32.5 mg/kg
[33] = molecular target: D(2) dopamine receptor (Homo sapiens) (UniProt P14416); assay: Binding affinity to human D2S receptor assessed as inhibition of control specific binding at 10 uM
[34] = Oral bioavailability in Wistar rat at 29.73 mg/kg; assay type: ADME, organism-based; conditions: in vivo
[35] = molecular target: Beta-2 adrenergic receptor (Homo sapiens) (UniProt P07550); assay: Binding affinity to human beta2 adrenergic receptor assessed as inhibition of control specific binding at 10 uM
[36] = Clearance in Wistar rat at 1.40 mg/kg, iv; assay type: ADME, organism-based; conditions: in vivo, 1.4 mg/kg
[37] = Volume of distribution at steady state in Wistar rat at 1.40 mg/kg, iv; assay type: ADME, organism-based; conditions: in vivo, 1.4 mg/kg, read-out: Vdss
[38] = molecular target: Transient receptor potential cation channel subfamily V member 1 (Homo sapiens, UniProt Q8NER1); assay: Antagonist activity at human TRPV1 receptor expressed in HEK293 cells assessed as inhibition of capsaicin-stimulated calcium flux after 10 mins; assay type: cell-based
Homo sapiens [39] = species: Homo sapiens; assay: Binding affinity to chloride channel (unknown origin) assessed as inhibition of control specific binding at 10 uM
[40] = molecular target: D(1A) dopamine receptor (Homo sapiens) (UniProt P21728); assay: Binding affinity to human D1 receptor assessed as inhibition of control specific binding at 10 uM
[41] = AUC (infinity) in Wistar rat at 32.50 mg/kg, ip; assay type: ADME, organism-based; set-up: dose 32.5 mg/kg, route intraperitoneal, time infinity; conditions: in vivo, 32.5 mg/kg

T1 sequence (Q9EPK8 whole entry): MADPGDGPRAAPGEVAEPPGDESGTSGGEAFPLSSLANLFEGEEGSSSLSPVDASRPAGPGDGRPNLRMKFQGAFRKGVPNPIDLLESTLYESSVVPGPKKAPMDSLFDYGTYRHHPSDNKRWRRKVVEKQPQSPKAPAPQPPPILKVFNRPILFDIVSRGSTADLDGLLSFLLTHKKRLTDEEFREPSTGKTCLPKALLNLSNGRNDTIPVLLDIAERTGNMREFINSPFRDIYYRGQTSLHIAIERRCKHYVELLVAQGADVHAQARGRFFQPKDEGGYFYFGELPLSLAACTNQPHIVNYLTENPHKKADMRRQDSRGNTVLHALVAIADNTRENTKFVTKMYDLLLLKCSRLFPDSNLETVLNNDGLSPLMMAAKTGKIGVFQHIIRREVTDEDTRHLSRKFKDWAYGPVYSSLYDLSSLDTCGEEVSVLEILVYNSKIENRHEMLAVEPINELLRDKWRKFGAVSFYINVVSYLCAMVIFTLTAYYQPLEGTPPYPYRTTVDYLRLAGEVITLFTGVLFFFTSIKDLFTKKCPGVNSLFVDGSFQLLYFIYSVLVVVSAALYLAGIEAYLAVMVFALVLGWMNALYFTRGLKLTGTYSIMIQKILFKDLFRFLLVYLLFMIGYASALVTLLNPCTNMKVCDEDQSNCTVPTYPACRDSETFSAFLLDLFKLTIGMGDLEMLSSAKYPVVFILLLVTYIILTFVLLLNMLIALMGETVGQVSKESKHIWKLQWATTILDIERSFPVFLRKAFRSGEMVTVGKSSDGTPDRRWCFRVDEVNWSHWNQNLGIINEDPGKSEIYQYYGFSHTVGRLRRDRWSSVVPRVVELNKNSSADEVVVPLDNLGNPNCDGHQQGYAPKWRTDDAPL
Chain of 5-hydroxytryptamine receptor 5A (Homo sapiens) (P47898 whole entry): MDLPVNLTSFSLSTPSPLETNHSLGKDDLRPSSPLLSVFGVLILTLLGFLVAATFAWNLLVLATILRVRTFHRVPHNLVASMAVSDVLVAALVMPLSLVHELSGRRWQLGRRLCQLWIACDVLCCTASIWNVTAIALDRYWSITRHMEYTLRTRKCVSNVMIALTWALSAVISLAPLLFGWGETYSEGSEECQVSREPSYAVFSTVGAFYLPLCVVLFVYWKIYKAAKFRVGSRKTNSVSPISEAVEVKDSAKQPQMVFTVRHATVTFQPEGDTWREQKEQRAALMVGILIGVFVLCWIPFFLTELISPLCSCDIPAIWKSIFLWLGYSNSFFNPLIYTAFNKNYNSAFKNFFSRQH
Chain of Beta-2 adrenergic receptor (Homo sapiens) (P07550 whole entry, looked up): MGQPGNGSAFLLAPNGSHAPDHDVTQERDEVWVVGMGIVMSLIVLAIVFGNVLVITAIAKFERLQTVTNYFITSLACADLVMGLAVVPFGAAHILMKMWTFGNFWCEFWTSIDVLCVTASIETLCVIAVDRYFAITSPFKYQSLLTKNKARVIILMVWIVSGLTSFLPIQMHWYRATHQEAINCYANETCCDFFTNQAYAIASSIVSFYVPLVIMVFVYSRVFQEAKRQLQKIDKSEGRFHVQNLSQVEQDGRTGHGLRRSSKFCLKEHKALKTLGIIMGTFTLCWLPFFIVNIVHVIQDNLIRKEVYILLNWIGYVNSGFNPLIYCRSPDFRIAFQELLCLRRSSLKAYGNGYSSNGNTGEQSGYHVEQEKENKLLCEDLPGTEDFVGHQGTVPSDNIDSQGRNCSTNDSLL
Chain of 5-hydroxytryptamine receptor 3A (Homo sapiens) (P46098 whole entry): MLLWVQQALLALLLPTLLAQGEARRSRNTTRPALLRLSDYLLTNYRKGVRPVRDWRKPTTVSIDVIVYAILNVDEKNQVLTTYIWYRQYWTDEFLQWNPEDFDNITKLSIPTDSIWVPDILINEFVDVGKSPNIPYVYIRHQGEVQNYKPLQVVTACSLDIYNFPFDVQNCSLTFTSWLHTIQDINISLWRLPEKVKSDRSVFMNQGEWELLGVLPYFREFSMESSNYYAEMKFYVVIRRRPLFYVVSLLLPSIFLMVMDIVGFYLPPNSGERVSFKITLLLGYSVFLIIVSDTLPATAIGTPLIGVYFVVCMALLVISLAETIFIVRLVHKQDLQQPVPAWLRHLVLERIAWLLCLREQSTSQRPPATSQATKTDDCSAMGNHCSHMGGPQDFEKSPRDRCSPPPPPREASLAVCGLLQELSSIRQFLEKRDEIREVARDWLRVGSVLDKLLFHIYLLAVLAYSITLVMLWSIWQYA
Chain of Transient receptor potential cation channel subfamily V member 4 (Rattus norvegicus, UniProt Q9ERZ8) (Q9ERZ8 whole entry): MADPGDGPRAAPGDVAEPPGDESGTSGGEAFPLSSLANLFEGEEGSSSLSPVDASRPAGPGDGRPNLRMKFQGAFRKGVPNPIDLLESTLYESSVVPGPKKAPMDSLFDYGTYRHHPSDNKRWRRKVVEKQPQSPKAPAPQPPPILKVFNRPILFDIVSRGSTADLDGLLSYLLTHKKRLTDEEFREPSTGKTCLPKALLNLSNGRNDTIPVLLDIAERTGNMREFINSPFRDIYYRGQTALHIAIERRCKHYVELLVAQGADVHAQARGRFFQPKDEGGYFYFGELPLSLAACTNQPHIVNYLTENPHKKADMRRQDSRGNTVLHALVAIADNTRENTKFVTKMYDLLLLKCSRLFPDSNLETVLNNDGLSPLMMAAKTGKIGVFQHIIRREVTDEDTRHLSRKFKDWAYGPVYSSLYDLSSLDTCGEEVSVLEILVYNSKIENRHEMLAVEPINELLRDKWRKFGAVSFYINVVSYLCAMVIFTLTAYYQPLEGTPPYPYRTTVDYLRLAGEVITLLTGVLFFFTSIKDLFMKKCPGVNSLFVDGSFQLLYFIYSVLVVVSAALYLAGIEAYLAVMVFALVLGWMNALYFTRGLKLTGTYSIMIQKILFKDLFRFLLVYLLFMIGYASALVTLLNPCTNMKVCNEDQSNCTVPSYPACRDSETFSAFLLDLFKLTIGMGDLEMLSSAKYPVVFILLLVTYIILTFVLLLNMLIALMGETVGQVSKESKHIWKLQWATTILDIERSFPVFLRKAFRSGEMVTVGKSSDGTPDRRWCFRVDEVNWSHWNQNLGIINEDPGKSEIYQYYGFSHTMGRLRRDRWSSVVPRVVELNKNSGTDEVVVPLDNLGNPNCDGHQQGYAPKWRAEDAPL
Chain of D(2) dopamine receptor (Homo sapiens) (P14416 whole entry): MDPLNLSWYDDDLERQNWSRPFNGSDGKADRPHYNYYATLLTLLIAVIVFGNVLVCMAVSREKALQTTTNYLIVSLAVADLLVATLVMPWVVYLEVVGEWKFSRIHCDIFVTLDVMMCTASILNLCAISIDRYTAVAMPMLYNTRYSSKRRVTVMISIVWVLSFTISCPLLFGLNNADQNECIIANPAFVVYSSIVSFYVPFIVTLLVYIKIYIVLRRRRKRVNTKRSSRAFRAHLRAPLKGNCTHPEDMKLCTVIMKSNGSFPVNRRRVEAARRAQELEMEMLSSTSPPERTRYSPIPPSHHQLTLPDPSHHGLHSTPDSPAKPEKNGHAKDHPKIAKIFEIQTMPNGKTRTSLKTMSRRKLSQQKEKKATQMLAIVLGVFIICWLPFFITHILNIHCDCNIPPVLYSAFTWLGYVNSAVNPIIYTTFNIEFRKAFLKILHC
Chain of 5-hydroxytryptamine receptor 6 (Homo sapiens) (P50406 whole entry): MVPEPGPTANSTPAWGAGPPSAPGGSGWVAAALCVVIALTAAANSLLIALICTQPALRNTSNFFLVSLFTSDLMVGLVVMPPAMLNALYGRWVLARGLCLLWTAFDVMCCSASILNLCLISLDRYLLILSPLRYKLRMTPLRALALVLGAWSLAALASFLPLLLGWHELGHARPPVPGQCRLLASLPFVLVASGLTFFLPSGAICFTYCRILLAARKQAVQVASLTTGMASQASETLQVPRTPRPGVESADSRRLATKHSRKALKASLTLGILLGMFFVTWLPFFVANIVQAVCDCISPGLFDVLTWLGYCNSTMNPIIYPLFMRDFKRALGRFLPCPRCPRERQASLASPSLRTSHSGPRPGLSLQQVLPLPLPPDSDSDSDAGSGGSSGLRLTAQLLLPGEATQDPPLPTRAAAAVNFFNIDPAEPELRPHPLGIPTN
Chain of Transient receptor potential cation channel subfamily V member 3 (Q8NET8 whole entry): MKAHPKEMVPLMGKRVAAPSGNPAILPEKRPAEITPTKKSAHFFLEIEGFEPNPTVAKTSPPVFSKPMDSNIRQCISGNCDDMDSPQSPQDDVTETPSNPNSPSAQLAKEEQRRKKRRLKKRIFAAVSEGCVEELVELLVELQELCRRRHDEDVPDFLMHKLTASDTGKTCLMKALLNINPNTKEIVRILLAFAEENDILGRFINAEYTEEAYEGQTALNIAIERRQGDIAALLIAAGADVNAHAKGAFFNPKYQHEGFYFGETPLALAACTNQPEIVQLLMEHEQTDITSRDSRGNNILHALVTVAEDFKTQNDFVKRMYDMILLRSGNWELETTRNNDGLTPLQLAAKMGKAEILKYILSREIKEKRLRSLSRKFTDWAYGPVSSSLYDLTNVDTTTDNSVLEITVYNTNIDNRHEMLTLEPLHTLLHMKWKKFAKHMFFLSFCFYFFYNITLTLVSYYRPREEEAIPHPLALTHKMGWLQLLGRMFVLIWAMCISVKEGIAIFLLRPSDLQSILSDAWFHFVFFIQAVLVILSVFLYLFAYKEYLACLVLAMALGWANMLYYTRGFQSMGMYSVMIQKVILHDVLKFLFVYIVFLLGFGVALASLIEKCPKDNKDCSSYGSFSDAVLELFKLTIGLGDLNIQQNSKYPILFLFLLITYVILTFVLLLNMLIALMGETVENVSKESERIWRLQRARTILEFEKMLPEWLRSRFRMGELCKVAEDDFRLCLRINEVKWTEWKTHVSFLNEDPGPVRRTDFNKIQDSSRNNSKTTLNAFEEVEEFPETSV
Chain of Adenosine receptor A3 (Homo sapiens) (P0DMS8 whole entry): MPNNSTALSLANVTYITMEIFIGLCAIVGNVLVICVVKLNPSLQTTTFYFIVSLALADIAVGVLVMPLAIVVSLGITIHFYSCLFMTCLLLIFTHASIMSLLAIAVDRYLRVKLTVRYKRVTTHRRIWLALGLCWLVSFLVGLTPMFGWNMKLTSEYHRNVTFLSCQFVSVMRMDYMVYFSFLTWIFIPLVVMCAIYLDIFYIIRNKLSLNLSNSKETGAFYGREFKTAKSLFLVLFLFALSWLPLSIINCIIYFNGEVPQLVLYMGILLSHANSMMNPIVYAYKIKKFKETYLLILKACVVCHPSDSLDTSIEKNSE

SMILES: CC(C)N1CCN(S(=O)(=O)c2ccc(NC(=O)c3ccc(C(F)(F)F)cc3[N+](=O)[O-])cc2)CC1
- inhibition [1]: 15%
- inhibition [2]: 1%
- inhibition [3]: 10%
- IC50 [4]: 2100 nM
- inhibition [5]: 3%
- IC50 [6]: 57 nM
- inhibition [7]: -6%
- inhibition [8]: -4%
- inhibition [9]: -7%
- inhibition [10]: 3%
- fraction unbound [11]: 0.01
- AUC(0-inf) [12]: 1010 ng·h/mL
- inhibition [13]: -3%
- inhibition [14]: 21%
- inhibition [15]: 9%
- Cmax [16]: 3820 ng/mL
- inhibition [17]: -2%
- inhibition [18]: 6%
- inhibition [19]: 10%
- inhibition [20]: -6%
- inhibition (Homo sapiens [21]): 17%
- inhibition [22]: 0%
- inhibition (Homo sapiens [23]): -4%
- inhibition [24]: -5%
- IC50 [25]: 320 nM
- inhibition (Homo sapiens [26]): 7%
- inhibition (Homo sapiens [27]): 9%
- inhibition [28]: 28%
- inhibition [29]: 4%
- inhibition [30]: 6%
- IC50 [31]: > 30000 nM
- Cmax [32]: 10600 ng/mL
- inhibition [33]: 2%
- bioavailability [34]: 46.8%
- inhibition [35]: 1%
- clearance [36]: 23.7 mL/min/kg
- Vd [37]: 1.44 L/kg
- IC50 [38]: > 10000 nM
- inhibition (Homo sapiens [39]): 24%
- inhibition [40]: 1%
- AUC(0-inf) [41]: 16500 ng·h/mL
